This note sets out measurements from ChEMBL document CHEMBL5247629, “C-6 fluorinated casuarines as highly potent and selective amyloglucosidase inhibitors: Synthesis and structure-activity relationship study” (Eur J Med Chem, 2022).

The target of assay [1] is T1, Alpha-mannosidase (Canavalia ensiformis) (UniProt C0HJB3).
T1 sequence (whole entry): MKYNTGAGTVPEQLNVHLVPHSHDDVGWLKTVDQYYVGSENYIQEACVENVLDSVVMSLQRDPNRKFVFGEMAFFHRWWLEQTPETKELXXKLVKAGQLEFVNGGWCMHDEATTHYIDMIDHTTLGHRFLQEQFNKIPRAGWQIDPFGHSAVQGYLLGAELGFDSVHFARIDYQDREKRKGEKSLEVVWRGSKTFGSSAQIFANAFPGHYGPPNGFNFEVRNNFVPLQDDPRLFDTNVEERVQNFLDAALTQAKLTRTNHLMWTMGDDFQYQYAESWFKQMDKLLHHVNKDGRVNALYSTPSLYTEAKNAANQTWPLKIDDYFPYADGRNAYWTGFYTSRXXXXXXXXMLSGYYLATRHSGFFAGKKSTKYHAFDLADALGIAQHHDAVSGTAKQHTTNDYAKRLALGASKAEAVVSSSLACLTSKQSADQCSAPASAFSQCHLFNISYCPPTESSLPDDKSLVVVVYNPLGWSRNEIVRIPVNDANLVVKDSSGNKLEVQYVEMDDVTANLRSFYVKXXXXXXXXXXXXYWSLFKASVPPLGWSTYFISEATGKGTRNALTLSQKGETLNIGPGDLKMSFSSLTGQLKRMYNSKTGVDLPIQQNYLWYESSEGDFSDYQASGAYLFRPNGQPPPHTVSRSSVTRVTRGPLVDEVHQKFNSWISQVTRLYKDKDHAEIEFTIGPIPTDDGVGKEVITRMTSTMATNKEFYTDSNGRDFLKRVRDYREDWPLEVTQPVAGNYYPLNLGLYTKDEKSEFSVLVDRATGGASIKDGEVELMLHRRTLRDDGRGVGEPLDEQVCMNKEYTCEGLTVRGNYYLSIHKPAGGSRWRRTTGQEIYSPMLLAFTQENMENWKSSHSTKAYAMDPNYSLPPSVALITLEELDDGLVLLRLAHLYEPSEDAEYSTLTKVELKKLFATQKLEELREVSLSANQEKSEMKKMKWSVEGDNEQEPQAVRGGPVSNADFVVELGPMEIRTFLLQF
Description: Inhibition of jack bean alpha-mannosidase using p-nitrophenyl glycoside as substrate at 1000 uM by spectrometric method relative to control.

A short description of assay [2]: Inhibition of rat intestinal maltase using maltose as substrate at pH 6.8 by colorimetric method. The class given is tissue-based, Intestine.
The species named for assay [3] is Bos taurus. Description: Inhibition of bovine liver beta-glucosidase using p-nitrophenyl glycoside as substrate at 1000 uM by spectrometric method relative to control. The class given is tissue-based.
For assay [4], the species on record is Bos taurus. Description: Inhibition of bovine liver beta-galactosidase using p-nitrophenyl glycoside as substrate at 1000 uM by spectrometric method relative to control. The class given is tissue-based.
Assay [5] in a line: Inhibition of Aspergillus niger amyloglucosidase using p-nitrophenyl glycoside as substrate by spectrometric method.
The test system of assay [6] is Penicillium decumbens. Put plainly: Inhibition of Penicillium decumbens alpha-L-rhamnosidase using p-nitrophenyl glycoside as substrate at 1000 uM by spectrometric method relative to control.
Assay [7] concerns Escherichia coli. Description: Inhibition of Escherichia coli beta-glucuronidase using p-nitrophenyl glycoside as substrate at 1000 uM by spectrometric method relative to control.
Assay [8] deals with T2, Alpha-glucosidase (Saccharomyces cerevisiae S288c, UniProt P53341+P38158+P07265). Put plainly: Inhibition of yeast alpha-glucosidase using p-nitrophenyl glycoside as substrate by spectrometric method. The format is protein assay.
For assay [9], the target named is Alpha-galactosidase (Coffea arabica) (UniProt Q42656). Description: Inhibition of coffee bean alpha-galactosidase using p-nitrophenyl glycoside as substrate at 1000 uM by spectrometric method relative to control.
For assay [10], the species on record is Bos taurus. Description: Inhibition of bovine liver beta-glucuronidase using p-nitrophenyl glycoside as substrate at 1000 uM by spectrometric method relative to control. The class given is tissue-based.
Assay [11] has as its system Helix pomatia. Put plainly: Inhibition of snail beta-mannosidase using p-nitrophenyl glycoside as substrate at 1000 uM by spectrometric method relative to control.
For assay [12], the target named is T3, Tissue alpha-L-fucosidase (Bos taurus) (UniProt Q2KIM0).
T3 sequence (whole entry): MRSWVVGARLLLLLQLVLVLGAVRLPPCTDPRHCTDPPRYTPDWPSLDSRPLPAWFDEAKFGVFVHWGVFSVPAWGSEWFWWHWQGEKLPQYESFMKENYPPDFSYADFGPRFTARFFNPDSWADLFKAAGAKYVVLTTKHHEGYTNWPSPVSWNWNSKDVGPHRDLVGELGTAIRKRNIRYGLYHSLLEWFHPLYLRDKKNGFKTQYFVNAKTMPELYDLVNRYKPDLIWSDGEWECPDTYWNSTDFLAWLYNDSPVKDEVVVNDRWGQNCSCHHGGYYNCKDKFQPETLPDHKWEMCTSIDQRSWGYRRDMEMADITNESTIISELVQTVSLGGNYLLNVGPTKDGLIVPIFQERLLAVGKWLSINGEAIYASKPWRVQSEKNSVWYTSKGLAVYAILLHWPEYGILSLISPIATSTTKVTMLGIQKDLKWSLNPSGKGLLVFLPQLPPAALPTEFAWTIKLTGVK
Description: Inhibition of bovine kidney alpha-L-fucosidase using p-nitrophenyl glycoside as substrate at 1000 uM by spectrometric method relative to control. The class given is tissue-based.

Assay [13] is described as follows: Inhibition of porcine kidney alpha/alpha-trehalase using p-nitrophenyl glycoside as substrate by spectrometric method. Set-up: species or system Sus scrofa.
For assay [14], the system named is Prunus dulcis. Description: Inhibition of almond beta-glucosidase using p-nitrophenyl glycoside as substrate at 1000 uM by spectrometric method relative to control.
Assay [15] relates to Oryza sativa. Description: Inhibition of rice alpha-glucosidase using p-nitrophenyl glycoside as substrate at 1000 uM by spectrometric method relative to control.
The species named for assay [16] is Bos taurus. Description: Inhibition of bovine liver beta-glucuronidase at 1000 uM relative to control. The format is tissue-based.
Assay [17] deals with Penicillium decumbens. Description: Inhibition of Penicillium decumbens alpha-L-rhamnosidase at 1000 uM relative to control.
A short description of assay [18]: Inhibition of Aspergillus niger amyloglucosidase.
For assay [19], the system named is Escherichia coli. Put plainly: Inhibition of Escherichia coli beta-glucuronidase at 1000 uM relative to control.
The species entered for assay [20] is Bos taurus. Put plainly: Inhibition of bovine liver beta-glucosidase at 1000 uM relative to control. The format is tissue-based.
Assay [21] is described as follows: Inhibition of porcine kidney alpha/alpha-trehalase. The format is tissue-based, Sus scrofa.
Assay [22] concerns the target T3, Tissue alpha-L-fucosidase (Bos taurus). Put plainly: Inhibition of bovine kidney alpha-L-fucosidase at 1000 uM relative to control. The class given is tissue-based.
Assay [23] addresses T1, Alpha-mannosidase (Canavalia ensiformis). Description: Inhibition of jack bean alpha-mannosidase at 1000 uM relative to control.
Assay [24] can be described thus: Inhibition of rice alpha-glucosidase. On the set-up: species or system Oryza sativa.
The species named for assay [25] is Bos taurus. Description: Inhibition of bovine liver beta-galactosidase at 1000 uM relative to control.
The target of assay [26] is Alpha-galactosidase (Coffea arabica) (UniProt Q42656). Put plainly: Inhibition of coffee bean alpha-galactosidase at 1000 uM relative to control.
The subject of assay [27] is Prunus dulcis. Put plainly: Inhibition of almond beta-glucosidase at 1000 uM relative to control.
For assay [28], the system named is Helix pomatia. Description: Inhibition of snail beta-mannosidase at 1000 uM relative to control.
Assay [29] has as its target T2, Alpha-glucosidase. Put plainly: Inhibition of yeast alpha-glucosidase. The format is protein assay.
The nature of assay [30]: Inhibition of rat intestinal maltase. The format is tissue-based, Intestine.
Assay [31] addresses Alpha-glucosidase (Saccharomyces cerevisiae S288c) (UniProt P53341+P38158+P07265). Description: Inhibition of yeast alpha-glucosidase using p-nitrophenyl glycoside as substrate at 1000 uM by spectrometric method relative to control. The format is protein assay.
Assay [32] can be described thus: Inhibition of almond beta-glucosidase using p-nitrophenyl glycoside as substrate by spectrometric method. Set-up: species or system Prunus dulcis.
Assay [33] can be described thus: Inhibition of bovine liver beta-glucosidase using p-nitrophenyl glycoside as substrate by spectrometric method. The format is tissue-based, Bos taurus.
Assay [34] in a line: Inhibition of rice alpha-glucosidase using p-nitrophenyl glycoside as substrate by spectrometric method. On the set-up: species or system Oryza sativa.
Assay [35] can be described thus: Inhibition of bovine liver beta-galactosidase using p-nitrophenyl glycoside as substrate by spectrometric method. On the set-up: species or system Bos taurus.
The species named for assay [36] is Sus scrofa. Description: Inhibition of porcine kidney alpha/alpha-trehalase using p-nitrophenyl glycoside as substrate at 1000 uM by spectrometric method relative to control. The class given is tissue-based.
Assay [37] is filed under the species Rattus norvegicus. Put plainly: Inhibition of rat intestinal maltase using maltose as substrate at 1000 uM at pH 6.8 by colorimetric method relative to control. The class given is tissue-based. As to conditions: Intestine.
The nature of assay [38]: Inhibition of Penicillium decumbens alpha-L-rhamnosidase using p-nitrophenyl glycoside as substrate by spectrometric method.

Sequence of Alpha-galactosidase (Coffea arabica) (Q42656 16-378 limits assumed): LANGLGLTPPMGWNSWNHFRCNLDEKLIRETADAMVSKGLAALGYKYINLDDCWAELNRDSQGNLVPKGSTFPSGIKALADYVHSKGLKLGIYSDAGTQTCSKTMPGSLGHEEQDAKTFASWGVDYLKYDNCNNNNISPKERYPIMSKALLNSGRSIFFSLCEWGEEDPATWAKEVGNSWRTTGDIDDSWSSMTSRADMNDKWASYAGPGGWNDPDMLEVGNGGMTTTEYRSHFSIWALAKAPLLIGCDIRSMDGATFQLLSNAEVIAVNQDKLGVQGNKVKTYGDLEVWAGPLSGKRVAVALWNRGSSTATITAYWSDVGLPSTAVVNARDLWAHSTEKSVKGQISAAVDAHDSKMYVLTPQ

In general, inhibition refers to the change of the read-out against control, counted positive when it falls. A high value points to strong suppression. One may read the IC50 as the midpoint of a concentration-inhibition curve. The term pIC50 denotes the negative decadic logarithm of the IC50, by convention in mol/L. As to `OC[C@@H]1[C@@H](O)[C@H](O)[C@H]2C[C@H](O)CN12`, the inhibition in assay [1] amounted to 2.2%; in assay [3], 13.9%; in assay [4] it was 25.4%; in assay [6], 11.2%; in assay [7], 4.3%; in assay [9] it was 4.5%. Further, the inhibition in assay [10] is 14%; in assay [11] it was 2.4%; in assay [12], 0%; in [14], 10.5%; in [15], 12.4%. Moreover, the IC50 in assay [2] is 248 µM; in assay [5], 42 µM; in assay [8] it was 466 µM; in assay [13] it was 22 µM. The compound further came in with a negative-log IC50 (pIC50) in [5] of 4.377.
With `OC[C@@H]1[C@@H](O)[C@H](O)[C@H]2[C@H](O)[C@@H](O)CN21` [CASUARINE], the inhibition is 17.3% in assay [16]; 4.6% in assay [17]; 1.8% in assay [19]; 7.5% in [20]; 0% in [22]; 0% in [23]. Besides, the inhibition amounted to 10.2% in assay [25], 3.7% in assay [26], 12% in [27] and 0% in [28]. For the same compound, the IC50 in assay [18] amounted to 6.3 µM; in [21], 157 µM; in assay [24], 14 µM; in assay [29], 71 µM; in assay [30] it was 3.1 µM. Besides, the negative-log IC50 (pIC50) in [5] is 5.201.
Consider `OC[C@@H]1[C@@H](O)[C@H](O)[C@H]2[C@H](O)C(F)(F)CN21`, for which the inhibition turned out to be 6.3% in assay [1]; 24% in assay [31]; 5.6% in assay [6]; 2.6% in assay [7]; 1.2% in [9]; 15.9% in [10]. The results for the inhibition in [11], in assay [12] and in assay [36] were 0%, 6.8% and 5.9%, respectively. Further, the IC50 was found to be 167 µM in [2]; 2.1 µM in [5]; 266 µM in assay [32]; 747 µM in assay [33]; 48 µM in assay [34]; 390 µM in [35]. Besides, in assay [5], the negative-log IC50 (pIC50) stood at 5.678.
As for `OC[C@@H]1[C@@H](O)[C@H](O)[C@H]2C[C@@H](O)CN12`, the inhibition in assay [1] is 6.3%; in [31] it was 44.1%; in [3] it was 21.9%; in assay [4], 5.9%; in assay [6], 6.3%; in assay [7] it was 20.5%. In addition, the inhibition came to 4.4% in assay [9]; 10.8% in assay [10]; 3.6% in assay [11]; 14.8% in assay [12]; 13.6% in assay [14]. In addition, the 50% inhibitory concentration (IC50) in [2] was 72 µM; in [5] it was 40 µM; in [13], 124 µM; in assay [34] it was 234 µM. In assay [5], this compound had a pIC50 of 4.398.
`OC[C@@H]1[C@@H](O)[C@H](O)[C@H]2[C@H](O)[C@H](F)CN21`: the inhibition was 5.8% in assay [1]; 12% in [31]; 33% in [37]; 43.8% in assay [3]; 47.6% in assay [4]; 4.3% in [7]. Besides, the inhibition in assay [9] stood at 1.7%; in assay [10] it was 11.6%; in [11], 5.9%; in assay [12], 7.6%; in assay [15], 12.7%; in assay [36], 15.6%. For the same compound, the figures for the IC50 in [38], in assay [5] and in assay [32] were 488 µM, 0.14 µM and 395 µM, respectively. For the same compound, the pIC50 in [5] was 6.854.
As for `OC[C@@H]1[C@@H](O)[C@H](O)[C@H]2[C@H](O)[C@H](O)CN21`, the inhibition in assay [16] was 18.4%; in [17], 13.2%; in assay [19] it was 3.1%; in [20], 1.9%; in assay [22], 0%; in assay [23] it was 1.1%. For the same compound, the inhibition in assay [25] stood at 5.9%; in assay [26], 6%; in assay [27] it was 31.9%; in assay [28], 3%. The half-maximal inhibitory concentration (IC50) is 5.3 µM in assay [18]; 9.7 µM in [21]; 68 µM in assay [24]; 46 µM in assay [29]; 13 µM in assay [30]. Moreover, the negative-log IC50 (pIC50) in assay [5] is listed as 5.276.
